# Source: patent US20230391774A1, “Novel Compounds” (AC Immune SA, priority 2020, published 2023)
# Biological target: T1, flTau aggregates (longest isoform of human Tau, 2N4R) (Homo sapiens, UniProt P10636)
# T1 construct: 35 μM of recombinant full-length (fl) Tau in phosphate-buffered saline (PBS) were aggregated; purchased Biotechne; host or cells: bacteria
# Test: Full-length Tau (flTau) disaggregation assay by Thioflavin T (ThT)
# Format: biochemical
# Details: ThT fluorescence; 60 nM flTau aggregates, 30 minutes at RT; read-out: flTau disaggregation EC50
# Method: Full-Length Tau (flTau) Disaggregation Assay by Thioflavin T (ThT)
# The longest isoform of human Tau (2N4R; 441 amino acids) was expressed in bacteria and purified (Biotechne). For the Tau disaggregation assay by ThT, 35 μM of recombinant full-length (fl) Tau in phosphate-buffered saline (PBS) were aggregated for 72 hours at 37° C. in presence of 35 μM of heparin (Sigma-Aldrich) and 10 mM of […] (Sigma-Aldrich) under shaking at 1000 RPM. Compound 1 was dissolved in anhydrous dimethyl sulfoxide (DMSO, Sigma-Aldrich) to reach a concentration of 2.5 mM. flTau aggregates and serial dilutions of compound 1 were mixed together in PBS (volume 50 μL) to a final concentration of 60 nM of flTau aggregates and from 20 to 0.0012 μM of Compound 1. The mixture was incubated for 30 minutes at room temperature (RT), then 40 μL of this mixture were transferred into a black 384-well plate assay (Perkin-Elmer) and mixed with 10 μL of 20 μM ThT in 250 mM glycine (both from Sigma-Aldrich) in PBS. Fluorescence (relative fluorescence units; RFU) was measured in monoplicate or duplicate on a Tecan reader (excitation: 440 nm; emission: 485 nm). Percentage of flTau disaggregation was then calculated and the half maximal effective concentration (EC50) was determined using GraphPad Prism version 8 (GraphPad Software) assuming a one-binding site fitting model, see Table 3 and Table 4.
# T1 sequence (P10636 1-441 isoform P10636-8): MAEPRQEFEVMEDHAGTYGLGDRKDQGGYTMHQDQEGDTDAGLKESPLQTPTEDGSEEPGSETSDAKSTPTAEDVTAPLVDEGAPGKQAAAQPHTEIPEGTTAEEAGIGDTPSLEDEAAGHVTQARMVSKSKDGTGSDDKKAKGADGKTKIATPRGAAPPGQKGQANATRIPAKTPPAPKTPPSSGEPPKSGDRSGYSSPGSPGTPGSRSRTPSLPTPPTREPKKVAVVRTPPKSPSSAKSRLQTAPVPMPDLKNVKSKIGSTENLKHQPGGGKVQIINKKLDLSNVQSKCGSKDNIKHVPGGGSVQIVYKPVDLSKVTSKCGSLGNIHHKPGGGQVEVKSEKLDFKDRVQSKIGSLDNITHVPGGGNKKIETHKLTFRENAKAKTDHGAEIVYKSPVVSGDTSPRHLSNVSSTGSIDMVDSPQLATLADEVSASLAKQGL
row,Compound,EC50 [nM]
1,"Cn1cc(-c2ccc3oc(N4CCOCC4)nc3c2)c2cc(F)cnc21 [Example 3, 5-(5-fluoro-1-methyl-1H-pyrrolo[2,3-b]pyridin-3-yl)-2-morpholinobenzo[d]oxazole]",1000 to 10000
2,"c1ccc2c(-c3ccc4oc(N5CCOCC5)nc4c3)n[nH]c2c1 [Example 4, 5-(1H-indazol-3-yl)-2-morpholinobenzo[d]oxazole]",< 1000
3,"C(#Cc1n[nH]c2ccccc12)c1ccc2oc(N3CCOCC3)nc2c1 [Example 5, 5-((1H-indazol-3-yl)ethynyl)-2-morpholinobenzo[d]oxazole]",< 1000
4,"C(#Cc1c[nH]c2ccccc12)c1ccc2oc(N3CCOCC3)nc2c1 [Example 6, 5-((1H-indol-3-yl)ethynyl)-2-morpholinobenzo[d]oxazole]",1000 to 10000
5,"c1ccc2c(-c3cnn(-c4ccc5oc(N6CCOCC6)nc5c4)c3)n[nH]c2c1 [Example 8, 5-(4-(1H-indazol-3-yl)-1H-pyrazol-1-yl)-2-morpholinobenzo[d]oxazole]",< 1000
6,"c1ccc2c(-c3ccn(-c4ccc5oc(N6CCOCC6)nc5c4)n3)n[nH]c2c1 [Example 10, 5-(3-(1H-indazol-3-yl)-1H-pyrazol-1-yl)-2-morpholinobenzo[d]oxazole]",< 1000
7,"c1ccc2c(-c3ccn(-c4ccc5oc(N6CCOCC6)nc5c4)n3)c[nH]c2c1 [Example 11, 5-(3-(1H-indol-3-yl)-1H-pyrazol-1-yl)-2-morpholinobenzo[d]oxazole]",< 1000
8,"O=C(Nc1ccc2oc(N3CCOCC3)nc2c1)c1c[nH]c2ccccc12 [Example 12, N-(2-morpholinobenzo[d]oxazol-5-yl)-1H-indole-3-carboxamide]",< 1000
9,"O=C(Nc1ccc2oc(N3CCOCC3)nc2c1)c1c[nH]c2ncccc12 [Example 13, N-(2-morpholinobenzo[d]oxazol-5-yl)-1H-pyrrolo[2,3-b]pyridine-3-carboxamide]",< 1000
10,"O=C(Nc1ccc2oc(N3CCOCC3)nc2c1)c1n[nH]c2ccccc12 [Example 18, N-(2-morpholinobenzo[d]oxazol-5-yl)-1H-indazole-3-carboxamide]",1000 to 10000
11,"Cn1cc(C2CCN(c3ccc4oc(N5CCOCC5)nc4c3)CC2)c2cccnc21 [Example 21, 5-(4-(1-methyl-1H-pyrrolo[2,3-b]pyridin-3-yl)piperidin-1-yl)-2-morpholinobenzo[d]oxazole]",1000 to 10000
12,"Fc1cnc2[nH]cc(C3CCN(c4ccc5oc(N6CCOCC6)nc5c4)CC3)c2c1 [Example 22, 5-(4-(5-fluoro-1H-pyrrolo[2,3-b]pyridin-3-yl)piperidin-1-yl)-2-morpholinobenzo[d]oxazole]",1000 to 10000
13,"c1ccn2c(C3CCN(c4ccc5oc(N6CCOCC6)nc5c4)CC3)cnc2c1 [Example 25, 5-(4-(imidazo[1,2-a]pyridin-3-yl)piperidin-1-yl)-2-morpholinobenzo[d]oxazole]",1000 to 10000
14,"c1ccc2c(C3CCN(c4cnc5nc(N6CCOCC6)sc5c4)CC3)c[nH]c2c1 [Example 28, 4-(6-(4-(1H-indol-3-yl)piperidin-1-yl)thiazolo[4,5-b]pyridin-2-yl)morpholine]",< 1000
15,"Fc1cnc2c(C3CCN(c4ccc5nc(N6CCOCC6)sc5c4)CC3)c[nH]c2c1 [Example 30, 4-(6-(4-(6-fluoro-1H-pyrrolo[3,2-b]pyridin-3-yl)piperidin-1-yl)benzo[d]thiazol-2-yl)morpholine]",< 1000
16,"Cn1nc(C2CCN(c3ccc4oc(N5CCOCC5)nc4c3)CC2)c2cccnc21 [Example 31, 5-(4-(1-methyl-1H-pyrazolo[3,4-b]pyridin-3-yl)piperidin-1-yl)-2-morpholinobenzo[d]oxazole]",1000 to 10000
17,"c1ccc2c(C3CCN(c4ccc5oc(N6CCOCC6)nc5c4)C3)c[nH]c2c1 (centres unmarked) [Example 39, 5-(3-(1H-indol-3-yl)pyrrolidin-1-yl)-2-morpholinobenzo[d]oxazole]",1000 to 10000
18,"c1ccc2c(C3CCN(c4ccc5oc(N6CCOCC6)nc5c4)C3)c[nH]c2c1 (centres unmarked) [Example 40, 5-(3-(1H-indol-3-yl)pyrrolidin-1-yl)-2-morpholinobenzo[d]oxazole]",< 1000
19,"c1ccc2c(C3CCN(c4cc5nc(N6CCOCC6)oc5cn4)CC3)n[nH]c2c1 [Example 45, 6-(4-(1H-indazol-3-yl)piperidin-1-yl)-2-morpholinooxazolo[5,4-c]pyridine]",1000 to 10000

row,Compound,EC50 [nM]
1,"c1ccc2c(C3CCN(c4cc5nc(N6CCOCC6)oc5cn4)CC3)c[nH]c2c1 [Example 48, 6-(4-(1H-indol-3-yl)piperidin-1-yl)-2-morpholinooxazolo[5,4-c]pyridine]",1000 to 10000
2,"c1ccc2c(C3CCN(c4cnc5oc(N6CCOCC6)nc5c4)CC3)n[nH]c2c1 [Example 49, 6-(4-(1H-indazol-3-yl)piperidin-1-yl)-2-morpholinooxazolo[5,4-b]pyridine]",10000 to 50000
3,"Fc1ccc2[nH]nc(C3CCN(c4ccc5oc(N6CCOCC6)nc5c4)CC3)c2c1 [Example 61, 5-(4-(5-fluoro-1H-indazol-3-yl)piperidin-1-yl)-2-morpholinobenzo[d]oxazole]",1000 to 10000
4,"Cn1cc(C2CCN(c3ccc4oc(N5CCOCC5)nc4c3)CC2)c2ccccc21 [Example 68, 5-(4-(1-methyl-1H-indol-3-yl)piperidin-1-yl)-2-morpholinobenzo[d]oxazole]",1000 to 10000
5,"c1ccc2c(C3CCN(c4cc5oc(N6CCOCC6)nc5cn4)CC3)n[nH]c2c1 [Example 72, 6-(4-(1H-indazol-3-yl)piperidin-1-yl)-2-morpholinooxazolo[4,5-c]pyridine]",10000 to 50000
6,"Fc1cccc2[nH]nc(C3CCN(c4ccc5oc(N6CCOCC6)nc5c4)CC3)c12 [Example 73, 5-(4-(4-fluoro-1H-indazol-3-yl)piperidin-1-yl)-2-morpholinobenzo[d]oxazole]",1000 to 10000
7,"Fc1ccc2c(C3CCN(c4ccc5oc(N6CCOCC6)nc5c4)CC3)n[nH]c2c1 [Example 74, 5-(4-(6-fluoro-1H-indazol-3-yl)piperidin-1-yl)-2-morpholinobenzo[d]oxazole]",1000 to 10000
8,"Fc1cccc2c(C3CCN(c4ccc5oc(N6CCOCC6)nc5c4)CC3)n[nH]c12 [Example 75, 5-(4-(7-fluoro-1H-indazol-3-yl)piperidin-1-yl)-2-morpholinobenzo[d]oxazole]",< 1000
9,"Cc1ccc2[nH]nc(C3CCN(c4ccc5oc(N6CCOCC6)nc5c4)CC3)c2c1 [Example 76, 5-(4-(5-methyl-1H-indazol-3-yl)piperidin-1-yl)-2-morpholinobenzo[d]oxazole]",1000 to 10000
10,"Cc1ccc2c(C3CCN(c4ccc5oc(N6CCOCC6)nc5c4)CC3)n[nH]c2c1 [Example 77, 5-(4-(6-methyl-1H-indazol-3-yl)piperidin-1-yl)-2-morpholinobenzo[d]oxazole]",1000 to 10000
11,"Cc1cccc2c(C3CCN(c4ccc5oc(N6CCOCC6)nc5c4)CC3)n[nH]c12 [Example 78, 5-(4-(7-methyl-1H-indazol-3-yl)piperidin-1-yl)-2-morpholinobenzo[d]oxazole]",1000 to 10000
12,"c1ccc2c(N3CCN(c4ccc5oc(N6CCOCC6)nc5c4)CC3)n[nH]c2c1 [Example 79, 5-(4-(1H-indazol-3-yl)piperazin-1-yl)-2-morpholinobenzo[d]oxazole]",< 1000
13,"COC1CCN(c2nc3cc(N4CCC(c5n[nH]c6ccccc56)CC4)ccc3o2)CC1 [Example 80, 5-(4-(1H-indazol-3-yl)piperidin-1-yl)-2-(4-methoxypiperidin-1-yl)benzo[d]oxazole]",1000 to 10000
14,"Cn1cc(C2CCN(c3ccc4sc(N5CCOCC5)nc4c3)C2)c2cc(F)cnc21 (centres unmarked) [Example 81, 4-(5-(3-(5-fluoro-1-methyl-1H-pyrrolo[2,3-b]pyridin-3-yl)pyrrolidin-1-yl)benzo[d]thiazol-2-yl)morpholine]",< 1000
15,"Cn1cc(C2CCN(c3ccc4nc(N5CCOCC5)sc4c3)C2)c2cc(F)cnc21 (centres unmarked) [Example 82, 4-(6-(3-(5-fluoro-1-methyl-1H-pyrrolo[2,3-b]pyridin-3-yl)pyrrolidin-1-yl)benzo[d]thiazol-2-yl)morpholine]",< 1000
16,"Cn1cc(C2CCN(c3ccc4nc(N5CCOCC5)sc4c3)C2)c2cc(F)cnc21 (centres unmarked) [Example 83, 4-(6-(3-(5-fluoro-1-methyl-1H-pyrrolo[2,3-b]pyridin-3-yl)pyrrolidin-1-yl)benzo[d]thiazol-2-yl)morpholine]",< 1000
17,"Cn1cc(C2CCN(c3cnc4oc(N5CCOCC5)nc4c3)C2)c2cc(F)cnc21 (centres unmarked) [Example 84, 6-(3-(5-fluoro-1-methyl-1H-pyrrolo[2,3-b]pyridin-3-yl)pyrrolidin-1-yl)-2-morpholinooxazolo[5,4-b]pyridine]",1000 to 10000
18,"Cn1cc(C2CCN(c3cnc4oc(N5CCOCC5)nc4c3)C2)c2cc(F)cnc21 (centres unmarked) [Example 85, 6-(3-(5-fluoro-1-methyl-1H-pyrrolo[2,3-b]pyridin-3-yl)pyrrolidin-1-yl)-2-morpholinooxazolo[5,4-b]pyridine]",< 1000
19,"Cn1cc(C2CCN(c3cc4nc(N5CCOCC5)oc4cn3)C2)c2cc(F)cnc21 (centres unmarked) [Example 86, 6-(3-(5-fluoro-1-methyl-1H-pyrrolo[2,3-b]pyridin-3-yl)pyrrolidin-1-yl)-2-morpholinooxazolo[5,4-c]pyridine]",1000 to 10000
